From ChEMBL document CHEMBL5385895, “Design, synthesis, biological evaluation of urea substituted 1,2,5-oxadiazole-3-carboximidamides as novel indoleamine 2,3-dioxygenase-1 (IDO1) inhibitors” (Eur J Med Chem, 2023)
The source made the active and inactive calls. The rule behind the calls is not given here.

Tests used:
[1] = molecular target: T1, Indoleamine 2,3-dioxygenase 2 (Homo sapiens) (UniProt Q6ZQW0); assay: Inhibition of human recombinant IDO2 assessed as reduction in N-formylkynurenine formation using L-tryptophan as substrate at 1 uM preincubated for 30 mins followed by substrate addition and measured after 20 mins by SpectraMax microplate reader analysis; conditions: time 50.0 min
T1 sequence (whole entry): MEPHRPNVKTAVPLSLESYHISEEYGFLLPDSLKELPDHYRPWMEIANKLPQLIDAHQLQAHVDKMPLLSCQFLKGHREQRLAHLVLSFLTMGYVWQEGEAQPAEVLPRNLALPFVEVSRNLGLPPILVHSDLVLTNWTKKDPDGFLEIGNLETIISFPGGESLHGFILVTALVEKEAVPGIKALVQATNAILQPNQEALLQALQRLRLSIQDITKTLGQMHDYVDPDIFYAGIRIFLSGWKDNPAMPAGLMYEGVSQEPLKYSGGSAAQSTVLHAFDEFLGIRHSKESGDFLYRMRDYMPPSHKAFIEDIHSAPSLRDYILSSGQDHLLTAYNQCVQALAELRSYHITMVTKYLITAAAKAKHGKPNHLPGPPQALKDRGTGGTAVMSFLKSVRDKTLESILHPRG

[2] = molecular target: Tryptophan 2,3-dioxygenase (Homo sapiens) (UniProt P48775); assay: Inhibition of human recombinant TDO assessed as reduction in N-formylkynurenine formation using L-tryptophan as substrate at 1 uM preincubated for 30 mins followed by substrate addition and measured after 20 mins by SpectraMax microplate reader analysis; conditions: time 50.0 min
Chain of Tryptophan 2,3-dioxygenase (Homo sapiens) (P48775 whole entry, looked up): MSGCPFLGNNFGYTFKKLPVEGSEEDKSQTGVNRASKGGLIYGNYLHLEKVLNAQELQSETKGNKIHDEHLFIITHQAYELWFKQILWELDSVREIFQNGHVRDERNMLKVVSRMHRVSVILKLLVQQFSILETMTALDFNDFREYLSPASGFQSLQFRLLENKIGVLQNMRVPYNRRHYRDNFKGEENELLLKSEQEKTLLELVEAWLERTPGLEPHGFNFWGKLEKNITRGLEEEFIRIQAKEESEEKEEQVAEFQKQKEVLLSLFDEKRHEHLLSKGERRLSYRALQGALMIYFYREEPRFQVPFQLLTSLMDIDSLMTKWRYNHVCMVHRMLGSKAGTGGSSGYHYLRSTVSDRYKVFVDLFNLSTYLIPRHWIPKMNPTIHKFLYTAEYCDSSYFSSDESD

[3] = Anti-tumor efficacy against mouse LLC cells implanted in C57BL/6 mouse assessed as tumor growth inhibition at 100 mg/kg, po bid treated for 21 days relative to control; type: functional; conditions: Lewis lung carcinoma, 504 h, time 21 day, read-out: TGI
HeLa = assay: cells; conditions: Homo sapiens, 24 h
HCT-116 = assay: cells; conditions: Homo sapiens, HCT-116, 24 h
CT26 = assay: cells; conditions: Mus musculus, CT26, 24 h
cells = conditions: Mus musculus, Lung cancer cell line, 24 h
[4] = Apparent permeability of the compound across apical to basolateral side in dog MDCK-II cells measured for 2 hrs by LC-MS/MS analysis; type: ADME, cell-based, Canis lupus familiaris
[5] = Apparent permeability of the compound across basolateral to apical side in dog MDCKII cells measured for 2 hrs by LC-MS/MS analysis; type: ADME, cell-based, Canis lupus familiaris, MDCK-II; conditions: MDCK
[6] = AUC (0 to t) in Sprague-Dawley rat at 25 mg/kg, po by LC-MS/MS analysis; type: ADME, organism-based; parameters: dose 25 mg/kg, route po; conditions: in vivo
[7] = AUC (0 to infinity) in Sprague-Dawley rat at 25 mg/kg, po by LC-MS/MS analysis; type: ADME, organism-based; parameters: dose 25 mg/kg, route po; conditions: in vivo
[8] = Tmax in Sprague-Dawley rat at 25 mg/kg, po by LC-MS/MS analysis; type: ADME, organism-based; conditions: in vivo
[9] = Half life in Sprague-Dawley rat at 25 mg/kg, po by LC-MS/MS analysis; type: ADME, organism-based; conditions: in vivo
[10] = Oral bioavailability in Sprague-Dawley rat at 25 mg/kg by LC-MS/MS analysis; type: ADME, organism-based; conditions: in vivo
[11] = AUC (0 to t) in Sprague-Dawley rat at 5 mg/kg, iv by LC-MS/MS analysis; type: ADME, organism-based; parameters: dose 5 mg/kg, route iv; conditions: in vivo
[12] = AUC (0 to infinity) in Sprague-Dawley rat at 5 mg/kg, iv by LC-MS/MS analysis; type: ADME, organism-based; parameters: dose 5 mg/kg, route iv; conditions: in vivo
[13] = Tmax in Sprague-Dawley rat at 5 mg/kg, iv by LC-MS/MS analysis; type: ADME, organism-based; conditions: in vivo
[14] = Cmax in Sprague-Dawley rat at 5 mg/kg, iv by LC-MS/MS analysis; type: ADME, organism-based; parameters: dose 5 mg/kg, route iv; conditions: in vivo
[15] = Half life in Sprague-Dawley rat at 5 mg/kg, iv by LC-MS/MS analysis; type: ADME, organism-based; conditions: in vivo
[16] = Volume of distribution in Sprague-Dawley rat at 5 mg/kg, iv by LC-MS/MS analysis; type: ADME, organism-based; conditions: in vivo
[17] = Plasma clearance in Sprague-Dawley rat at 5 mg/kg, iv by LC-MS/MS analysis; type: ADME, organism-based
[18] = Toxicity in C57BL/6 mouse implanted with mouse LLC cells assessed as change in body weight at 100 to 200 mg/kg, po bid treated for 21 days; type: organism-based, Lewis lung carcinoma; conditions: in vivo, 504 h, dose 100-200 mg/kg, time 21 day
[19] = molecular target: T2, Indoleamine 2,3-dioxygenase 1 (Homo sapiens, UniProt P14902); assay: Inhibition of human recombinant IDO1 assessed as reduction in N-formylkynurenine formation using L-tryptophan as substrate preincubated for 30 mins followed by substrate addition and measured after 20 mins by SpectraMax microplate reader analysis
T2 sequence (P14902 whole entry): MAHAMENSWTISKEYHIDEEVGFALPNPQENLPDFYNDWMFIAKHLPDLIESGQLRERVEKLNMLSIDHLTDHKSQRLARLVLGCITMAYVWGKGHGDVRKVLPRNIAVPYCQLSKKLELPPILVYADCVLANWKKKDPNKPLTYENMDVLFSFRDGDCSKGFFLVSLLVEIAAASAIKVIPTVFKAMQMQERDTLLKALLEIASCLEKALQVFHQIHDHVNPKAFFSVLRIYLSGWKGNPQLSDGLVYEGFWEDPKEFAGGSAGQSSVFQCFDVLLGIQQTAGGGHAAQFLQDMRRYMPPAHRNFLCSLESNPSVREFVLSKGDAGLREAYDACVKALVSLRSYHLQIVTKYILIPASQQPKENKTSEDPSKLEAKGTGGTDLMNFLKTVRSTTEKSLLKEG

[20] = molecular target: T2, Indoleamine 2,3-dioxygenase 1; assay: Inhibition of IDO1 in IFN-gamma-induced human HeLa cells assessed as reduction in N-formylkynurenine formation using L-tryptophan as substrate preincubated for 24 hrs followed by substrate addition and measured after 30 mins by SpectraMax microplate reader analysis; type: cell-based
[21] = Cmax in Sprague-Dawley rat at 25 mg/kg, po by LC-MS/MS analysis; type: ADME, organism-based; parameters: dose 25 mg/kg, route po; conditions: in vivo
[22] = Anti-tumor efficacy against mouse LLC cells implanted in C57BL/6 mouse assessed as tumor growth inhibition at 200 mg/kg, po bid treated for 21 days relative to control; type: functional; conditions: Lewis lung carcinoma, 504 h, time 21 day, read-out: TGI
[23] = Toxicity in C57BL/6 mouse implanted with mouse LLC cells assessed as mortality at 100 to 200 mg/kg, po bid treated for 21 days; type: organism-based, Lewis lung carcinoma; conditions: in vivo, 504 h, dose 100-200 mg/kg, time 21 day
[24] = Toxicity in C57BL/6 mouse implanted with mouse LLC cells assessed as pathological changes in heart at 100 to 200 mg/kg, po bid treated for 21 days by H and E staining assay; type: organism-based, Lewis lung carcinoma; conditions: in vivo, 504 h, dose 100-200 mg/kg, time 21 day
[25] = Toxicity in C57BL/6 mouse implanted with mouse LLC cells assessed as pathological changes in liver at 100 to 200 mg/kg, po bid treated for 21 days by H and E staining assay; type: organism-based, Lewis lung carcinoma; conditions: in vivo, 504 h, dose 100-200 mg/kg, time 21 day
[26] = Toxicity in C57BL/6 mouse implanted with mouse LLC cells assessed as pathological changes in spleen at 100 to 200 mg/kg, po bid treated for 21 days by H and E staining assay; type: organism-based, Lewis lung carcinoma; conditions: in vivo, 504 h, dose 100-200 mg/kg, time 21 day
[27] = Toxicity in C57BL/6 mouse implanted with mouse LLC cells assessed as pathological changes in lung at 100 to 200 mg/kg, po bid treated for 21 days by H and E staining assay; type: organism-based, Lewis lung carcinoma; conditions: in vivo, 504 h, dose 100-200 mg/kg, time 21 day
[28] = Toxicity in C57BL/6 mouse implanted with mouse LLC cells assessed as pathological changes in kidney at 100 to 200 mg/kg, po bid treated for 21 days by H and E staining assay; type: organism-based, Lewis lung carcinoma; conditions: in vivo, 504 h, dose 100-200 mg/kg, time 21 day
[29] = Toxicity in C57BL/6 mouse implanted with mouse LLC cells assessed as liver function by measuring change in total protein level at 100 to 200 mg/kg, po bid treated for 21 days […]; type: organism-based, Lewis lung carcinoma; conditions: in vivo, 504 h, dose 100-200 mg/kg, time 21 day
[30] = Toxicity in C57BL/6 mouse implanted with mouse LLC cells assessed as liver function by measuring change in AST level at 100 to 200 mg/kg, po bid treated for 21 days […]; type: organism-based, Lewis lung carcinoma; conditions: in vivo, 504 h, dose 100-200 mg/kg, time 21 day
[31] = Toxicity in C57BL/6 mouse implanted with mouse LLC cells assessed as liver function by measuring change in ALT level at 100 to 200 mg/kg, po bid treated for 21 days […]; type: organism-based, Lewis lung carcinoma; conditions: in vivo, 504 h, dose 100-200 mg/kg, time 21 day
[32] = Toxicity in C57BL/6 mouse implanted with mouse LLC cells assessed as kidney function by measuring change in BUN level at 100 to 200 mg/kg, po bid treated for 21 days […]; type: organism-based, Lewis lung carcinoma; conditions: in vivo, 504 h, dose 100-200 mg/kg, time 21 day
in vitro = conditions: dog, MDCK

Row | SMILES | inhibition [1] | inhibition [2] | inhibition in vivo at 100 mg/kg [3] [%] | IC50 (HeLa) [µM] | IC50 (HCT-116) [µM] | IC50 (CT26) [µM] | IC50 (cells) [µM] | Papp A→B at 2 h [4] [×10⁻⁶ cm/s] | Papp B→A at 2 h [5] [×10⁻⁶ cm/s] | AUC(0-t) [6] [ng·h/mL] | AUC(0-inf) [7] [ng·h/mL] | Tmax [8] [min] | half-life [9] [min] | bioavailability [10] [%] | AUC(0-t) [11] [ng·h/mL] | AUC(0-inf) [12] [ng·h/mL] | Tmax [13] [min] | Cmax [14] [ng/mL] | half-life [15] [min] | Vd [16] [L/kg] | further results
1 | NS(=O)(=O)NCCNc1nonc1/C(=N/O)Nc1ccc(F)c(Br)c1 [EPACADOSTAT] | inactive | inactive | 38.8 | 59.8 | 36.3 | 64.6 | > 50 |  |  |  |  |  |  |  |  |  |  |  |  |  | 
2 | NS(=O)(=O)NCCNc1nonc1C(=NO)Nc1ccc(F)c(Br)c1 [EPACADOSTAT] |  |  |  |  |  |  |  | 3.12 | 7.36 | 472 | 530 | 18.6 | 133 | 12.4 | 836 | 856 | 1.98 | 2430 | 38.4 | 5.73 | clearance [17]: 102 mL/min/kg
3 | CCNC(=O)Nc1nonc1/C(=N/O)Nc1ccc(F)c(Br)c1 | inactive | inactive | 41.5 | 46.1 | 19.6 | 34.9 | > 50 | 38.6 | 22.6 | 2220 | 2250 | 60 | 78.6 | 16.8 | 2640 | 2690 | 1.98 | 10000 | 97.2 | 4.01 | Activity [18]: Non-Toxic; IC50 [19]: 0.0674 µM; IC50 [20]: 0.0176 µM; Cmax [21]: 1690 ng/mL; clearance [17]: 32.3 mL/min/kg; inhibition in vivo at 200 mg/kg [22]: 53.1%; Activity [23]: Non-Toxic; Activity [24]: Non-Toxic; Activity [25]: Non-Toxic; Activity [26]: Non-Toxic; Activity [27]: Non-Toxic; Activity [28]: Non-Toxic; Activity [29]: Non-Toxic; Activity [30]: Non-Toxic; Activity [31]: Non-Toxic; Activity [32]: Non-Toxic; efflux ratio at 2 h (in vitro): 0.58
